The values that follow come from patent publication US20040198707A1, “Means and method for hormonal contraception” (priority 2001, published 2004).

A short description of this test: conversion factors for progestogens: amount equivalent to a given amount of levonorgestrel. As to conditions: estimate of the amount of progestogen equivalent to a given amount of levonorgestrel (levonorgestrel = 1). The text has this:
In order to determine for a specific biogenic estrogen or synthetic estrogen the amounts that are equivalent to a cited amount of ethinyl estradiol or 17beta-estradiol, the method described by Allen and Doisy may suitably be used (Allen A., Doisy E. A., “An ovarian hormone. Preliminary report on its localization, extraction and partial purification, and action in test animals. JAMA (1923), 81, 819-821). Similarly, in order to determine for a given progestogen the amount equivalent to cited amount of levonorgestrel the method originally described by McPhail can be used (Mc Phail M. K. “The assay of progestin” J Physiol (1934), 83, 145-156). A more recent description of this method can be found in an article written by Overbeek G. A., de Visser J. “A new substance with progestational activity”, Acta Endocrinol (1956), 22,318-329. It is noted that the aforementioned methods will provide useful indications about the anticipated estrogen potency or progestogen potency of a particular hormone. However, to accurately determine the equivalent amounts that are referred to above, it is advisable to additionally conduct in vivo studies in human females.
For guidance the table below provides the conversion factors for a number of progestogens that may suitably be used in the method of the invention. These conversion factors may be used to calculate, for each progestogen mentioned in the table, an estimate of the amount of said progestogen which is equivalent to a given amount of levonorgestrel.
As to `C#C[C@]1(OC(C)=O)CC[C@H]2[C@@H]3CCC4=CC(=NO)CC[C@@H]4[C@H]3CC[C@@]21CC` (mixture of isomers) [norgestimate], the Conversion factor is 1.7.

For `C[C@]12CCC(=O)C=C1[C@@H]1C[C@@H]1[C@H]1[C@@H]3[C@@H]4C[C@@H]4[C@@]4(CCC(=O)O4)[C@@]3(C)CC[C@@H]12` [drospirenone], the Conversion factor is on record as 20.

As to `CC(=O)[C@H]1CC[C@H]2[C@@H]3C=CC4=CC(=O)CC[C@@]4(C)[C@@H]3CC[C@]12C` [dydrogesterone], the Conversion factor is 133.

Take `C#C[C@]1(O)CC[C@H]2[C@@H]3CCC4=CC(=O)CC[C@@H]4[C@H]3CC[C@@]21C` [norethisterone]: the Conversion factor is given as 7.
